# Data published in patent US6166023A, “1,5- and 3-O-substituted 1H-indazoles having anti-asthmatic, anti-allergic, anti-inflammatory, immunomodulating and neuroprotective action, process for their preparation and their use as medicaments” (Arzneimittelwerk Dresden GmbH, priority 1998, dated 2000).
# Assays:
# [1] = system: pulmonary eosinophil infiltration; assay: Inhibition of late-phase eosinophilia 24 h after inhalational ovalbumin challenge in actively sensitized guinea-pigs; type: in vivo; settings: BAL 24 h after OVA challenge
# Procedure: The inhibition of pulmonary eosinophil infiltration by the substances is tested in an in-vivo test on male Dunkin-Hartley guinea-pigs (200-250 g) sensitized against ovalbumin (OVA). The sensitization is carried out by means of two intraperitoneal injections of a suspension of 20 μg of OVA together with 20 mg of aluminium hydroxide as an adjuvant in 0.5 ml of physiological saline solution per animal on two successive days. 14 days after the second injection, the animals are pretreated with mepyramine maleate (10 mg/kg i.p.) in order to protect them from anaphylactic death. 30 minutes later, the animals are exposed for 30 sec in a plastic box to an OVA aerosol (0.5 mg/ml) which is generated by a nebulizer driven by compressed air (19.6 kPa) (allergen challenge). Control animals are nebulized with physiological saline solution. 24 hours after the challenge, the animals are anaesthetized with an overdose of ethylurethane (1.5 g/kg of body weight i.p.) and a bronchoalveolar lavage (BAL) is carried out with 2×5 ml of physiological saline solution. The BAL fluid is collected, centrifuged at 300 rpm for 10 min and the cell pellet is then resuspended in 1 ml of physiological saline solution. The eosinophils are stained using the Becton-Dickinson test kit (N. 5877) for eosinophils and counted in a Neubauer chamber. 2 control groups (nebulization with physiological saline solution and nebulization with OVA solution) are additionally included in each test.
# The percentage inhibition of the eosinophilia of the test group treated with substance is calculated according to the following formula:
# (A-C)-(B-C)/(A-C)×100=% inhibition
# The test substances are administered intraperitoneally or orally as a suspension in 10% polyethylene glycol 300 and 0.5% strength 5-hydroxyethylcellulose 2 hours before allergen challenge. The control groups are treated with the vehicle according to the administration form of the test substance. The number of animals per control and test group is 3-10.
# [2] = target: human cyclophilin B (Homo sapiens, UniProt P23284); assay: Peptidylprolyl isomerase (PPIase) activity inhibition assay; type: biochemical; settings: Cyp B, test peptide Suc-Ala-Ala-Pro-Phe-Nan
# Procedure: To determine the anti-asthmatic, anti-allergic, anti-inflammatory and/or immunomodulating properties of the compounds according to the invention, in-vitro and in-vivo investigations were carried out. […] For the initial screening (10 μmol/l), the inhibition of human cyclophilin B in the PPIase test is determined.
# The PPIase activity is tested according to a globally customary enzyme test: G. Fischer, H. Bang, C. Mech, Biomed. Biochim. Acta 43 1101-1111; G. Fischer, H. Bang, A. Schellenberger, Biochim. Biophys. Acta 791 (1984), 87-97; D. H. Rich et al., J. Med. Chem. 38 (1995), 4164-4170.
# The compounds of the general formula I according to the invention are preincubated at 4° C. for 15 minutes together with 10 nmol of Cyp B. The enzyme reaction is started using the test peptide Suc-Ala-Ala-Pro-Phe-Nan after addition of chymotrypsin and HEPES buffer. The extinction change at 390 nm is then monitored and evaluated. The photometrically determined extinction change results from two sub-reactions: a) the rapid chymotryptic cleavage of the trans-peptide; b) the non-enzymatic cis-trans isomerization, which is catalysed by cyclophilins.
# human cyclophilin B, sequence (P23284 34-216): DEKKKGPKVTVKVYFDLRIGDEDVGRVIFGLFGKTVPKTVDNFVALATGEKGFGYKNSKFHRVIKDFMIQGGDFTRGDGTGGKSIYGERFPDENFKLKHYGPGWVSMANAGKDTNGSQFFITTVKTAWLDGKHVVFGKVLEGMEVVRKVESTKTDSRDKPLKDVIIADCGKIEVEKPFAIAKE
inhibition at 10 µM [2] [%],SMILES,"Eosinophil million/animal x ± s, B = group treated with substance with OVA challenge ([1]; 10 mg/kg i.p. -2 h) [million/animal]",Inhibition [%] of eosinophilia ([1]; 10 mg/kg i.p. -2 h) [%],"Eosinophil million/animal x ± s, B = group treated with substance with OVA challenge ([1]; 30 mg/kg p.o. -2 h) [million/animal]",Inhibition [%] of eosinophilia ([1]; 30 mg/kg p.o. -2 h) [%]
70,"COc1ccc2c(c1)c(OCc1noc(-c3cccc(C(F)(F)F)c3)n1)nn2S(=O)(=O)c1ccc(C)cc1 [Example 32, 5-Methoxy-1-(toluene-4-sulphonyl)-3-[5-(3-trifluoromethylphenyl)-1,2,4-oxadiazol-3-ylmethoxy]-1H-indazole]",0.86 ± 0.49,85,–,–
90,COc1ccc2c(c1)c(OCc1c(Cl)cccc1Cl)nn2Cc1cccc([N+](=O)[O-])c1 [Example 84],–,–,–,–
–,COc1ccc2c(c1)c(OCCOc1ccc(Cl)cc1)nn2S(=O)(=O)c1ccc(F)cc1 [Example 8],1.84 ± 0.94,41,–,–
71,COc1ccc2c(c1)c(OCc1ccc(Cl)cc1[N+](=O)[O-])nn2S(=O)(=O)c1ccc(C)cc1 [Example 41],–,–,–,–
40,"COc1ccc2c(c1)c(OCC(=O)Nc1ccc(F)cc1F)nn2S(=O)(=O)c1ccc(C)cc1 [Example 66, N-(2,4-Difluorophenyl)-2-[5-methoxy-1-(toluene-4-sulphonyl)-1H-indazol-3-yloxy]acetamide]",–,–,–,–
90,COc1ccc(S(=O)(=O)n2nc(OCCOc3ccc(Cl)cc3)c3cc(OC)ccc32)cc1 [Example 9],–,–,–,–
–,"COc1ccc2c(c1)c(OCCOc1ccc([N+](=O)[O-])cc1)nn2Cc1ccc(F)cc1 [Example 91, 1-(4-Fluorobenzyl)-5-methoxy-3-[2-(4-nitrophenoxy)ethoxy]-1H-indazole]",1.16 ± 0.65,71,–,–
70,COc1ccc2c(c1)c(OCCOc1ccc(Cl)cc1)nn2S(=O)(=O)c1ccc(Cl)cc1 [Example 7],–,–,–,–
–,"COc1ccc2c(c1)c(OCCOc1c(F)cc(F)cc1Br)nn2CCOc1ccc([N+](=O)[O-])cc1 [Example 99, 3-[2-(2-Bromo-4,6-difluorophenoxy)ethoxy]-5-methoxy-1-[2-(4-nitrophenoxy)ethyl]-1H-indazole]",1.35 ± 0.67,46,1.33 ± 0.23,33
95,"COc1ccc2c(c1)c(OCCOc1c(F)cc(F)cc1Br)nn2S(=O)(=O)c1ccc(C)cc1 [Example 1, 3-[2-(2-Bromo-4,6-difluorophenoxy)ethoxy]-5-methoxy-1-(toluene-4-sulphonyl)-1H-indazole]",1.23 ± 0.38,61,1.75 ± 1.86,65
67,COc1ccc2c(c1)c(OCC(=O)Nc1ccc(Cl)cc1Cl)nn2S(=O)(=O)c1ccc(C)cc1 [Example 73],–,–,–,–
90,O=C(Nc1ccc2c(c1)c(OCCOc1ccc([N+](=O)[O-])cc1)nn2Cc1ccc(Cl)c(Cl)c1)Nc1cccc2ccccc12 [Example 116],–,–,–,–
100,"O=C(Nc1ccc2c(c1)c(OCCOc1ccc([N+](=O)[O-])cc1)nn2Cc1ccc(Cl)cc1Cl)Nc1cccc2ccccc12 [Example 114, 1-{1-(2,4-Dichlorobenzyl)-3-[2-(4-nitrophenoxy)ethoxy]-1H-indazol-5-yl}-3-naphthalen-1-ylurea]",1.19 ± 0.43,58,–,–
–,COc1ccc2c(c1)c(OCc1cc(C(C)=O)ccc1OC)nn2CCOc1ccc([N+](=O)[O-])cc1 [Example 107],1.44 ± 0.92,68,–,–
